These results are taken from patent publication US20090105349A1, “ANDROGEN MODULATORS” (WARNER-LAMBERT COMPANY LLC, priority 2004, published 2009).

For assay [1], the system named is male Syrian hamsters (ear sebaceous glands, sebum). The experiment in a line: Animal model for inhibition of sebum production (hamster ear). In kind it is in vivo, Syrian hamster. The note with it: 3 % w/v, 4 weeks. Here is the method:
Arch. Derm. […] This model uses male Syrian hamsters, whose ears contain sebaceous glands.
Testing for sebum inhibition was carried out in the following manner. Male Syrian hamsters aged 9 to 10 weeks were introduced into the laboratory environment and acclimated for 2 weeks prior to use in the study. Each group consisted of 5 animals and run in parallel with vehicle and positive controls. Prior to administration, a sufficient quantity each compound was dissolved in 1 mL of the vehicle identified in Table III to achieve the final concentration reported in Table Ill.
Animals were dosed topically twice daily, five days a week, for 4 weeks. Each dose consisted of 25 micro liters of vehicle control or drug. The dose was applied to the ventral surfaces of both the right and left ears. All animals were sacrificed approximately 18-24 hours after the final dose. The right ears were collected from each animal and used for sebum analysis.
The ears were prepped for HPLC analysis in the following manner. One 8 mm distal biopsy punch was taken, just above the anatomical “V” mark in the ear to normalize the sample area. The punch was pulled apart. The ventral biopsy surface (the area where the topical dose was directly applied to the sebaceous glands) was retained for testing and the dorsal surface of the biopsy punch was discarded.
Tissue samples were blown with N2 gas and stored at −80° C. under nitrogen until HPLC analysis. In addition to ear samples, an aliquot of each drug and vehicle (at least 250 ul) was also stored at −80° C. for inclusion in the HPLC analysis.
HPLC analysis was carried out on an extract of the tissue sample. Tissue samples were contacted with 3 ml of solvent (a 4:1 admixture of 2,2,4-trimethylpentane and isopropyl alcohol). The mixture was shaken for 15 minutes and stored overnight at room temperature, protected from light. The next morning 1 milliliter of water was added to the sample and shaken for 15 minutes. The sample was then centrifuged at approximately 1500 rpm for 15 minutes. Two ml of the organic phase (top layer) was transferred to a glass vial, dried at 37° C., under nitrogen, for approximately 1 hour, and then lyophilized for approximately 48 hours. The samples were then removed from the lyophilizer and each vial was reconstituted with 600 μl of solvent A (trimethylpentane/tetrahydrofuran (99:1). The samples were then recapped and vortexed for 5 minutes.
200 μl of each sample was then transferred to a pre-labeled 200 μl HPLC vial with 200 μL glass inserts. The HPLC vials were placed in the autosampler tray for the Agilent 1100 series HPLC unit. The Agilent 1100 HPLC system consisted of a thermostated autosampler, a quarternary pump, a column heater, and an A/D interface module. All components were controlled by Agilent ChemStation software. A Waters Spherisorb S3W 4.6×100 mm analytical column was maintained at 30° C. by the Agilent column heater unit. The HPLC autosampler was programmed to maintain the sample temperature at 20 C throughout the run.
10 uL of each sample was injected in triplicate into the column. Two solvents were used for the solvent gradient. Solvent A was an admixture of trimethylpentane and tetrahydrofuran (99:1). Solvent B was ethylacetate. The gradient utilized is described in the table below: […]
The Sedex 75 Evaporative Light Scattering Detector (ELSD) was operated at 45° C. with a gain of 5, and N2 pressure maintained at 3.1 bar. Analog signal obtained by the instrument was sent to the Agilent A/D interface module where it was converted to a digital output. The conversion was based on a 10000 mAU/volt set point and the data rate was set at 10 Hz (0.03 min). The resulting digital output was then feed into the Agilent ChemStation software for integration of the peak area.

Assay [2] concerns male C3H/HeN mice (telogen to anagen conversion). In kind it is in vivo. The note with it: mouse, in vivo. From the text: While this model is a significant improvement over the telogen conversion assay as a model for human baldness, it suffers from a number of practical disadvantages. The macaques are expensive, relatively rare, labor intensive to maintain, and require long wash out periods between testing. […] Thus, the model relates to a modification of the existing telogen conversion assay. Male C3H/HeN mice approximately 7 weeks old are utilized. These animals are also uniformly in telogen, like their female counterparts. However, once shaven, the androgens inherently present in these male mice inhibit the conversion of the hair follicles to the anagen phase. An anti-androgen will block this androgenic effect and the follicles will convert to anagen, like their female counterparts.
The compounds shown below in Table IV were submitted for further testing utilizing the modified telogen conversion assay, described above. The testing was carried out in the following manner.
Male C3H/HeN mice, 6 to 7 weeks old (Charles River Laboratories, Raleigh, N.C.) were used for the study. Fur was clipped from the dorsal region of the mice prior to initiation of the study. Only mice with pink skin, a visual indication of the telogen phase, were selected for inclusion in the study.
A second group of animals received only the vehicle to serve as a control. Treatments were applied twice daily for 4 weeks.
The hair growth response was quantified by recording, for each animal, the day on which signs of hair growth first appeared over the treated area. The first sign of anagen was the darkening of skin color as melanocytes in the follicles started to synthesize melanin in preparation for the production of pigmented hairs. […] The day on which anagen was initiated in 50% of the test animals for both the treatment group and the vehicle group is reported below in Table IV.

The mark [3] stands for this setting: Vehicle #1 (polyethylene glycol/transcutol/ethanol 20/20/60), topical twice daily, vs vehicle control.

Take `CSc1ccccc1Oc1ccc(C#N)cc1Cl` [Example 5, 3-Chloro-4-(2-methylsulfanyl-phenoxy)-benzonitrile]: in assay [1] (setting [3]), the “% CE Reduction” value is 27% and the “% WE Reduction” value worked out at 39%. The “% WE & CE Reduction” value in assay [1] (Vehicle #1, topical twice daily, sum of WE and CE) amounted to 66%. Also, in assay [2], the “Anagen-Trx (day on which anagen was initiated in 50% of the test animals)” value is over 35 days.
